Assay results taken from ChEMBL document CHEMBL4732047, “New imidazopyridines with phosphodiesterase 4 and 7 inhibitory activity and their efficacy in animal models of inflammatory and autoimmune diseases” (Eur J Med Chem, 2021).
Calls of active or inactive are those of the source. The rule behind the calls is not given here.

Assays:
[1] = biological target: 3',5'-cyclic-AMP phosphodiesterase 4B (Homo sapiens, UniProt Q07343); assay: Inhibition of human recombinant PDE4B using cAMP as substrate incubated for 20 mins measured by Kinase Glo reagent based microplate reader assay
Sequence of 3',5'-cyclic-AMP phosphodiesterase 4B (Q07343 whole entry): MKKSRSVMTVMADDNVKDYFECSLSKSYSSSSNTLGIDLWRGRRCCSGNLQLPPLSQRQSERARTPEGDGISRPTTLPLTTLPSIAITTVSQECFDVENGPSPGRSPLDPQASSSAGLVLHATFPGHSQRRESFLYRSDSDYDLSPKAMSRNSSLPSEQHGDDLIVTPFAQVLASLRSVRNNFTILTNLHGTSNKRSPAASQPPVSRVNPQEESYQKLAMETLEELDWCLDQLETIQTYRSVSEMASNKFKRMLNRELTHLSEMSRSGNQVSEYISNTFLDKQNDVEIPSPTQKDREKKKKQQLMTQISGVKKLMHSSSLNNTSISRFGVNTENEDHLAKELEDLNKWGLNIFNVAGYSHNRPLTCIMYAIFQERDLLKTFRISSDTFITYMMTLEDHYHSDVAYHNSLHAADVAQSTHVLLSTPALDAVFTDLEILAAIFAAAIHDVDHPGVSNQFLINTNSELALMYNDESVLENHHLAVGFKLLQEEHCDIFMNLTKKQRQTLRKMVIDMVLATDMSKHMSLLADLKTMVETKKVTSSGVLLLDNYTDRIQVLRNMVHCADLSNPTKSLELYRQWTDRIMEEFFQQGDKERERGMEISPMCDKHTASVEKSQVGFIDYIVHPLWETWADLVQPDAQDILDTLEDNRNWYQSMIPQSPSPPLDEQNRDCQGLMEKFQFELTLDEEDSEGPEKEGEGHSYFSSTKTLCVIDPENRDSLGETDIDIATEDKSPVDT

[2] = biological target: High affinity 3',5'-cyclic-AMP phosphodiesterase 7A (Homo sapiens, UniProt Q13946); assay: Inhibition of human recombinant PDE7A using cAMP as substrate incubated for 20 mins measured by Kinase Glo reagent based microplate reader assay
Sequence of High affinity 3',5'-cyclic-AMP phosphodiesterase 7A (Q13946 whole entry): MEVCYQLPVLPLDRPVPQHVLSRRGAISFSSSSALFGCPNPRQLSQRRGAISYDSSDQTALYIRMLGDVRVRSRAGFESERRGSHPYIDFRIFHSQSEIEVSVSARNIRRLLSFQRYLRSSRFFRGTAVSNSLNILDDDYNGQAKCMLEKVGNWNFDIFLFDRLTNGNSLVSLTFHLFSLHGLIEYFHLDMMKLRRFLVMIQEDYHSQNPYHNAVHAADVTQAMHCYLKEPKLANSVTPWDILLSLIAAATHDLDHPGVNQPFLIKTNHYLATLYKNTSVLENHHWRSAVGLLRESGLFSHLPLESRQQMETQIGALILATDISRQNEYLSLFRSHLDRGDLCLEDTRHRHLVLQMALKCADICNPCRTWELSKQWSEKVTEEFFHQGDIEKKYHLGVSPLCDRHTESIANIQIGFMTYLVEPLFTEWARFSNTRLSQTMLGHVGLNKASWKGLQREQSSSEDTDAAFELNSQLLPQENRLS

[3] = biological target: Dual specificity calcium/calmodulin-dependent 3',5'-cyclic nucleotide phosphodiesterase 1B (Homo sapiens, UniProt Q01064); assay: Inhibition of human recombinant PDE1B using cAMP as substrate incubated for 20 mins measured by Kinase Glo reagent based microplate reader assay
Sequence of Dual specificity calcium/calmodulin-dependent 3',5'-cyclic nucleotide phosphodiesterase 1B (Q01064 whole entry): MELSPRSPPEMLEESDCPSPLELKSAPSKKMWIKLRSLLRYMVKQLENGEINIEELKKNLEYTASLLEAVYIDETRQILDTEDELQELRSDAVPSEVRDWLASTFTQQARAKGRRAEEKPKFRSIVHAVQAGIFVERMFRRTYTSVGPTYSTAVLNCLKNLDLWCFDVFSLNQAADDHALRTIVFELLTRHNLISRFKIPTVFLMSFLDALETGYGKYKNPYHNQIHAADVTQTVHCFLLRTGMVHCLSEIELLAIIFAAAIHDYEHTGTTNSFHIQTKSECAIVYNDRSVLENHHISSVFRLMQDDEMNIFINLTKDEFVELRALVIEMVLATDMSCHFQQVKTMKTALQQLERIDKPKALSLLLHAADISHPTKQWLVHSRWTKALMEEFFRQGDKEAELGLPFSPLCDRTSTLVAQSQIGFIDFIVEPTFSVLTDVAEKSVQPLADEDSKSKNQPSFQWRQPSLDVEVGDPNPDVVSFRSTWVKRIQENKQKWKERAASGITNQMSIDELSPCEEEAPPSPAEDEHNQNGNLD

[4] = biological target: cGMP-inhibited 3',5'-cyclic phosphodiesterase 3A (Homo sapiens, UniProt Q14432); assay: Inhibition of human recombinant PDE3A using cAMP as substrate incubated for 20 mins measured by Kinase Glo reagent based microplate reader assay
[5] = biological target: cGMP-dependent 3',5'-cyclic phosphodiesterase (Homo sapiens, UniProt O00408); assay: Inhibition of human recombinant PDE2A using cGMP as substrate incubated for 20 mins measured by Kinase Glo reagent based microplate reader assay
Sequence of cGMP-dependent 3',5'-cyclic phosphodiesterase (O00408 whole entry): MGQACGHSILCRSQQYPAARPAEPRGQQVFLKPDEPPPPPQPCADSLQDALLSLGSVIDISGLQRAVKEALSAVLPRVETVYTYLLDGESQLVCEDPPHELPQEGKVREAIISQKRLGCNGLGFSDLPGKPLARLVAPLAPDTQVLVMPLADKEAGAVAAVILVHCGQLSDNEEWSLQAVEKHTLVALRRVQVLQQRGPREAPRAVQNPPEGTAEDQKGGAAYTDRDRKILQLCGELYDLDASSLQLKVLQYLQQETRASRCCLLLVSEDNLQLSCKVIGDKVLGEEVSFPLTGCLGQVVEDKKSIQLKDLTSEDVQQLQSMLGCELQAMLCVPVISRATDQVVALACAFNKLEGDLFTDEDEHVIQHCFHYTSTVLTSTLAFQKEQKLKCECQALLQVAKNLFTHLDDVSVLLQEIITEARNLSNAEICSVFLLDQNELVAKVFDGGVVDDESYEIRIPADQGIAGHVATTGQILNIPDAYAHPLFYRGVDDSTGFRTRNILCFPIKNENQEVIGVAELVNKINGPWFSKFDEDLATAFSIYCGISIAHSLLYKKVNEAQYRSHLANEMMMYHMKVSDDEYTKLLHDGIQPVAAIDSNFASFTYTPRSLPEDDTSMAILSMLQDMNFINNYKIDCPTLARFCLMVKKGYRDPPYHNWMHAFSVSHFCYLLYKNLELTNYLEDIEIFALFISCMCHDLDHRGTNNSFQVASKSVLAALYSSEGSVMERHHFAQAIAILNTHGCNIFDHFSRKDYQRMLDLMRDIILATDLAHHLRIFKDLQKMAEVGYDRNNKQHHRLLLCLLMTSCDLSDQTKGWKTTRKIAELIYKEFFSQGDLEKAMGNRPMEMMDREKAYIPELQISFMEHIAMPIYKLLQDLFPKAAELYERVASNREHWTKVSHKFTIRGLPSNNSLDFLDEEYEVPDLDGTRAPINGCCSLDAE

[6] = Selectivity index, ratio of IC50 for inhibition of human recombinant PDE3A to IC50 for inhibition of human recombinant PDE4B
[7] = biological target: cAMP and cAMP-inhibited cGMP 3',5'-cyclic phosphodiesterase 10A (Homo sapiens, UniProt Q9Y233); assay: Inhibition of human recombinant PDE10A using cAMP as substrate incubated for 20 mins measured by Kinase Glo reagent based microplate reader assay
Sequence of cAMP and cAMP-inhibited cGMP 3',5'-cyclic phosphodiesterase 10A (Q9Y233 whole entry): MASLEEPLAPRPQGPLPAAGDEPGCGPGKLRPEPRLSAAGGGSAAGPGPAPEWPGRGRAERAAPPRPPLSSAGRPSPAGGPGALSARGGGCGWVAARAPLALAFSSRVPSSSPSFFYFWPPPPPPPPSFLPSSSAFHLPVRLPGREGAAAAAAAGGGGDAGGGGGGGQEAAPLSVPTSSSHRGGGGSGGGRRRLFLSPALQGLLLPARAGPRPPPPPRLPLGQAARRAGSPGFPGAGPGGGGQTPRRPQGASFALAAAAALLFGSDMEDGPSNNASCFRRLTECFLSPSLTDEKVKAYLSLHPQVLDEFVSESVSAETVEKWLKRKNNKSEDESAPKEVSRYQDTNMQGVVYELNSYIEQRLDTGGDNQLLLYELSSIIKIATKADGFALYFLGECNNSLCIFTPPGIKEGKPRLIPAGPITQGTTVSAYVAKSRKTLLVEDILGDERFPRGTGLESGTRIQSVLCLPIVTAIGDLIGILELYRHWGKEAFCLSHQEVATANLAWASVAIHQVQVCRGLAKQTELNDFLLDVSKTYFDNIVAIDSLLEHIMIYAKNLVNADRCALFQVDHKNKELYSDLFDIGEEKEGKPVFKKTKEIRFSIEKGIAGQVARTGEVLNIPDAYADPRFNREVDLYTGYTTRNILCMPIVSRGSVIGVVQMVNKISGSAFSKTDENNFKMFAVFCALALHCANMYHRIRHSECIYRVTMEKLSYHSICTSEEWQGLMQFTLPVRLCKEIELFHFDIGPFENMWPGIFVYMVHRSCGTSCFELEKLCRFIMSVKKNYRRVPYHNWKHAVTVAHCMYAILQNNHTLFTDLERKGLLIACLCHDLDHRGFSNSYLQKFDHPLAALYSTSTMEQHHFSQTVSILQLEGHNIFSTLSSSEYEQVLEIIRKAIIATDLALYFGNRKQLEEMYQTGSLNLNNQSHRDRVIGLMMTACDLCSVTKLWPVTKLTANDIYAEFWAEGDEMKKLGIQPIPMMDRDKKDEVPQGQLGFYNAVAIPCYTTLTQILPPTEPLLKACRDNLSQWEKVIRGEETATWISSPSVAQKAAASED

[8] = biological target: 3',5'-cyclic-AMP phosphodiesterase 4D (Homo sapiens, UniProt Q08499); assay: Inhibition of human recombinant PDE4D using cAMP as substrate incubated for 20 mins measured by Kinase Glo reagent based microplate reader assay
Sequence of 3',5'-cyclic-AMP phosphodiesterase 4D (Q08499 whole entry): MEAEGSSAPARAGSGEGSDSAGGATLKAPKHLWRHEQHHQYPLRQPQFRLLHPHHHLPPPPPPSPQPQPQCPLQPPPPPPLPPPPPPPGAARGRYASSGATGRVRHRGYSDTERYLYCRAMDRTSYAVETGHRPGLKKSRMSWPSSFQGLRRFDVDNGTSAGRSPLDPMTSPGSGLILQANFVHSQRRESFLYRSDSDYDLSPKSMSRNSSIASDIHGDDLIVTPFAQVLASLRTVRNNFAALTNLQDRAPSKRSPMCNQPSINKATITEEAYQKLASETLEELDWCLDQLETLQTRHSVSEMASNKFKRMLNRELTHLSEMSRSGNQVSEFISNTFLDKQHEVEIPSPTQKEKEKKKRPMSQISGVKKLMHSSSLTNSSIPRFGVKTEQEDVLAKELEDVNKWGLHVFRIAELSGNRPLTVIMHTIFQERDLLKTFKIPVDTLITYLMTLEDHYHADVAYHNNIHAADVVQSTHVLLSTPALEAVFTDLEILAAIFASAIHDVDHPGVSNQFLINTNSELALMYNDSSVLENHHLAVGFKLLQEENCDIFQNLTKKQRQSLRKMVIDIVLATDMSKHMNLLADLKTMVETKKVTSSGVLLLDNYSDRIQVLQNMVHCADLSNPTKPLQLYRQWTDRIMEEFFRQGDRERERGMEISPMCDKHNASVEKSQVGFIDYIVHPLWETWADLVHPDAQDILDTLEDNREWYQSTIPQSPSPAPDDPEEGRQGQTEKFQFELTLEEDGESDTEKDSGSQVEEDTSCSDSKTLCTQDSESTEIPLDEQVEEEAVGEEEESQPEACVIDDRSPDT

[9] = biological target: cGMP-specific 3',5'-cyclic phosphodiesterase (Homo sapiens, UniProt O76074); assay: Inhibition of human recombinant PDE5A using cGMP as substrate incubated for 20 mins measured by Kinase Glo reagent based microplate reader assay
[10] = Selectivity index, ratio of IC50 for inhibition of human recombinant PDE4D to IC50 for inhibition of human recombinant PDE4B
[11] = Cmax in female Lewis rat at 10 mg/kg, iv; type: ADME, organism-based; set-up: route intravenous, dose 10 mg/kg; conditions: in vivo
Mus musculus [12] = assay: Hepatoprotective activity in ConA-induced BALB/c hepatitis mouse model assessed as decrease in serum aspartate aminotransferase level at 10 mg/kg, ip administration and measured after 8 hrs relative to control; type: functional, organism-based
Rattus norvegicus [13] = assay: Antiinflammatory activity in LPS-induced Wistar rat endotoxemia model assessed as decrease in plasma TNFalpha level at 20 mg/kg, ip measured after 2 hr; type: functional; set-up: scale not given: the % may be the effect or the level left
[14] = Tmax in female Lewis rat at 10 mg/kg, iv; type: ADME, organism-based; conditions: in vivo
[15] = Brain to serum concentration ratio in C57BL/6 mouse at 50 mg/kg, ip measured after 5 mins; type: ADME, organism-based
Rattus norvegicus [16] = assay: Antiinflammatory activity in LPS-induced Wistar rat endotoxemia model assessed as decrease in plasma TNFalpha level at 20 mg/kg, ip measured after 1.5 hr; type: functional; set-up: scale not given: the % may be the effect or the level left
[17] = Tmax in male Wistar rat at 10 mg/kg, ip; type: ADME, organism-based; conditions: in vivo
Mus musculus [18] = assay: Hepatoprotective activity in ConA-induced BALB/c hepatitis mouse model assessed as decrease in serum IFNgamma level at 50 mg/kg, ip administration and measured after 8 hrs relative to control; type: functional, organism-based
[19] = Brain to serum concentration ratio in C57BL/6 mouse at 50 mg/kg, ip measured after 60 mins; type: ADME, organism-based
Mus musculus [20] = assay: Hepatoprotective activity in ConA-induced BALB/c hepatitis mouse model assessed as decrease in serum IFNgamma level at 10 mg/kg, ip administration and measured after 8 hrs relative to control; type: functional, organism-based
[21] = Brain to serum concentration ratio in C57BL/6 mouse at 50 mg/kg, ip measured after 15 mins; type: ADME, organism-based
Mus musculus [22] = assay: Hepatoprotective activity in ConA-induced BALB/c hepatitis mouse model assessed as decrease in serum IL-6 level at 10 mg/kg, ip administration and measured after 8 hrs relative to control; type: functional, organism-based
Mus musculus [23] = assay: Hepatoprotective activity in ConA-induced BALB/c hepatitis mouse model assessed as decrease in serum alanine aminotransferase level at 50 mg/kg, ip administration and measured after 8 hrs relative to control; type: functional, organism-based
Mus musculus [24] = assay: Hepatoprotective activity in ConA-induced BALB/c hepatitis mouse model assessed as decrease in serum aspartate aminotransferase level at 50 mg/kg, ip administration and measured after 8 hrs relative to control; type: functional, organism-based
[25] = Apparent volume of distribution during terminal phase in female Lewis rat at 10 mg/kg, iv; type: ADME, organism-based; conditions: in vivo
[26] = AUC in male Wistar rat at 10 mg/kg, ip; type: ADME, organism-based; set-up: dose 10 mg/kg; conditions: in vivo
[27] = Elimination half life in female Lewis rat at 10 mg/kg, iv; type: ADME, organism-based; conditions: in vivo, read-out: beta t1/2
[28] = Cmax in male Wistar rat at 10 mg/kg, ip; type: ADME, organism-based; set-up: route intraperitoneal, dose 10 mg/kg; conditions: in vivo
[29] = Elimination half life in male Wistar rat at 10 mg/kg, ip; type: ADME, organism-based; conditions: in vivo, read-out: beta t1/2
[30] = Apparent volume of distribution during terminal phase in male Wistar rat at 10 mg/kg, ip; type: ADME, organism-based; conditions: in vivo, read-out: Vz/F
Mus musculus [31] = assay: Immunosuppressive activity in MOG (35 to 55 residues) toxin-induced experimental autoimmune encephalomyelitis C57BL/6 mouse model assessed reduction in disease onset at 50 mg/kg, ip; type: functional, organism-based
Mus musculus [32] = assay: Hepatoprotective activity in ConA-induced BALB/c hepatitis mouse model assessed as decrease in serum alanine aminotransferase level at 10 mg/kg, ip administration and measured after 8 hrs relative to control; type: functional, organism-based
Mus musculus [33] = assay: Immunosuppressive activity in MOG (35 to 55 residues) toxin-induced experimental autoimmune encephalomyelitis female C57BL/6 mouse model assessed as reduction in clinical scores at 50 mg/kg, ip administered […] once daily starting from day 1 post immunization and measured 15 days; type: functional, organism-based; conditions: time 15.0 day
Rattus norvegicus [34] = assay: Antiinflammatory activity in LPS-induced Wistar rat endotoxemia model assessed as decrease in plasma TNFalpha level at 20 mg/kg, ip measured after 1 hr; type: functional; set-up: scale not given: the % may be the effect or the level left
Mus musculus [35] = assay: Immunosuppressive activity in MOG (35 to 55 residues) toxin-induced experimental autoimmune encephalomyelitis C57BL/6 mouse model assessed as reduction in white matter vacuolation in cerebellum at 50 mg/kg, ip relative to untreated control; type: functional, organism-based
Rattus norvegicus [36] = assay: Antiinflammatory activity in collagen-induced arthritis Lewis rat model assessed as decrease in paw swelling at 20 mg/kg, ip once daily administered on day 20 after collagen treatment and treated until day 40 by macroscopic observation analysis; type: functional, organism-based
[37] = Clearance in male Wistar rat at 10 mg/kg, ip; type: ADME, organism-based; conditions: in vivo
[38] = Clearance in female Lewis rat at 10 mg/kg, iv; type: ADME, organism-based; conditions: in vivo
Mus musculus [39] = assay: Immunosuppressive activity in MOG (35 to 55 residues) toxin-induced experimental autoimmune encephalomyelitis C57BL/6 mouse model assessed decrease in polymorphonuclear leukocytes infiltration into spinal cored at 50 mg/kg, ip relative to untreated control; type: functional, organism-based
[40] = Elimination half life in Wistar rat; type: ADME; conditions: in vivo, read-out: beta t1/2
[41] = AUC in female Lewis rat at 10 mg/kg, iv; type: ADME, organism-based; set-up: dose 10 mg/kg; conditions: in vivo
Mus musculus [42] = assay: Immunosuppressive activity in MOG (35 to 55 residues) toxin-induced experimental autoimmune encephalomyelitis C57BL/6 mouse model assessed decrease in macrophages infiltration into spinal cored at 50 mg/kg, ip relative to untreated control; type: functional, organism-based
[43] = Drug uptake in C57BL/6 mouse brain at 50 mg/kg, ip measured up to 60 mins; type: ADME, organism-based; conditions: read-out: Drug uptake
Mus musculus [44] = assay: Hepatoprotective activity in ConA-induced BALB/c hepatitis mouse model assessed as decrease in serum IL-6 level at 50 mg/kg, ip administration and measured after 8 hrs relative to control; type: functional, organism-based

For `CCCCCn1c(-c2ccco2)nc2c(N(C)CCCO)ccnc21`, which IC50 [1] is on record?
The IC50 was 18 µM.

What about the IC50 [2] of the same compound?
Its IC50 is 18.8 µM.

With `COCCCNc1ccnc2c1nc(-c1ccco1)n2C1CCCC1` as the compound, how does the IC50 [1] read?
The IC50 was 8.6 µM.

And the IC50 [2]?
The IC50 was 90.5 µM.

With `CCCCCn1c(-c2ccco2)nc2c(NCCCOC)nccc21` as the compound, how does the IC50 [1] read?
Its IC50 is 12.6 µM.

What about the IC50 [2] of the same compound?
Its IC50 is 83.3 µM.

With `CCOC(=O)C1=C[C@]2(CC)CCCN3CCc4c(n1c1ccccc41)[C@@H]32` [VINPOCETINE] as the compound, how does the IC50 [3] read?
The IC50 was 7.99 µM.

With `CCCCCn1c(-c2ccccc2)nc2c(NCCc3cccs3)ccnc21` as the compound, how does the IC50 [1] read?
Its IC50 is 7.09 µM.

And the IC50 [2]?
The IC50 was over 200 µM.

With `c1coc(-c2nc3c(NCCc4cccs4)nccc3n2C2CCCC2)c1` as the compound, how does the IC50 [1] read?
The IC50 was 2.8 µM.

What about the IC50 [2] of the same compound?
Its IC50 is over 200 µM.

What does the source list for `CCCCCn1c(-c2ccco2)nc2c(NCCCOC)ccnc21`?
IC50 [3]: 0.36 µM; IC50 [4]: 40.6 µM; IC50 [5]: 6.85 µM; IC50 [1]: 3.53 µM; Ratio IC50 [6]: > 10; IC50 [7]: 9.97 µM; IC50 [8]: 27.2 µM; IC50 [9]: 53.5 µM; IC50 [2]: 34.2 µM; Ratio IC50 [10]: 10

For `CCCCCn1c(-c2ccccc2)nc2c(NCc3ccccc3)nccc21`, which IC50 [1] is on record?
Its IC50 is 102 µM.

And the IC50 [2]?
The IC50 was over 200 µM.

For `OCCCNc1ccnc2c1nc(-c1ccco1)n2C1CCCC1`, which Cmax [11] is on record?
The Cmax was 10600 ng/mL.

And the IC50 [3]?
The IC50 was 8.45 µM.

And the IC50 [4]?
The IC50 was 47.3 µM.

What about the IC50 [5] of the same compound?
The IC50 was 40.7 µM.

And the Activity (Mus musculus [12])?
The Activity was “Active”.

What about the Activity (Rattus norvegicus [13]) of the same compound?
The Activity was 44%.

And the Tmax [14]?
The Tmax was 0 h.

And the Kp at 5 min [15]?
The Kp at 5 min was 2.96.

And the Activity (Rattus norvegicus [16])?
Its Activity is 51%.

And the Tmax [17]?
Its Tmax is 15 min.

What about the Activity (Mus musculus [18]) of the same compound?
The Activity was “Active”.

And the Kp at 1 h [19]?
Its Kp at 1 h is 4.34.

And the Activity (Mus musculus [20])?
Its Activity is “Active”.

What about the Kp at […] [21] of the same compound?
The Kp at […] was 5.87.

What about the Activity (Mus musculus [22]) of the same compound?
The Activity was “Active”.

What about the Activity (Mus musculus [23]) of the same compound?
The Activity was “Active”.

What about the Activity (Mus musculus [24]) of the same compound?
Its Activity is “Active”.

What about the Vz/F [25] of the same compound?
The Vz/F was 1.85 L/kg.

And the AUC [26]?
Its AUC is 1230 ng·h/mL.

And the half-life [27]?
The half-life was 19.5 min.

What about the Cmax [28] of the same compound?
Its Cmax is 1940 ng/mL.

And the half-life [29]?
The half-life was 20.1 min.

And the IC50 [1]?
The IC50 was 2.53 µM.

And the Vd/F [30]?
The Vd/F was 3.92 L/kg.

And the Activity (Mus musculus [31])?
The Activity was “Active”.

What about the Activity (Mus musculus [32]) of the same compound?
The Activity was “Active”.

What about the Ratio IC50 [6] of the same compound?
The Ratio IC50 was over 10.

What about the Activity (Mus musculus [33]) of the same compound?
Its Activity is “Active”.

What about the Activity (Rattus norvegicus [34]) of the same compound?
Its Activity is 49%.

And the Activity (Mus musculus [35])?
The Activity was “Active”.

And the Activity (Rattus norvegicus [36])?
The Activity was “Active”.

And the CL/F [37]?
Its CL/F is 140 mL/min/kg.

What about the clearance [38] of the same compound?
The clearance was 70 mL/min/kg.

And the IC50 [7]?
The IC50 was 5.75 µM.

And the IC50 [8]?
The IC50 was 35.6 µM.

What about the Activity (Mus musculus [39]) of the same compound?
The Activity was “Active”.

And the half-life [40]?
The half-life was 30 min.

What about the AUC [41] of the same compound?
The AUC was 2530 ng·h/mL.

And the Activity (Mus musculus [42])?
The Activity was “Active”.

What about the IC50 [9] of the same compound?
Its IC50 is 2.71 µM.

What about the IC50 [2] of the same compound?
Its IC50 is 88 µM.

What about the concentration at 1 h [43] of the same compound?
Its concentration at 1 h is at least 830 ng/mL.

And the Activity (Mus musculus [44])?
The Activity was “Active”.

And the Ratio IC50 [10]?
The Ratio IC50 was over 10.
